Experimental data reported in patent US8658662B2, “Crystalline CDC7 inhibitor salts” (Nerviano Medical Sciences S.r.l., priority 2009, dated 2014).
In brackets after ≈: the same amount, converted by molar mass. Structures can show the parent of a compound that is named as a salt. Where two headings read alike, the source gives them in different places.

Columns and labels:
Type in all cases: physicochemical
[1] = Hygroscopicity test by Dynamic Vapour Sorption (DVS); conditions: RH modifications up to 90% at 25° C.
Description: The water uptake of crystalline NMS-E354 salts and free base was investigated by submitting a sample of such substances to a hygroscopicity test by means of a DVS 1000 (SMS). The apparatus is a “controlled atmosphere microbalance” where the weighed sample is exposed to programmed variations of the relative humidity (RH) at a constant and controlled temperature. The measured parameters (weight, time and RH), reported in Excel worksheets, allow obtaining hygroscopicity curves over the tested RH range. Sorption/desorption cycles between 0% and 90% RH can be performed at controlled temperature of 25° C. Progressive variations of RH can be of 10% and 3%; they are operated by the software at the equilibration of the sample weight. This condition can be defined at a constant rate of percent weight variation e.g. 0.005%/min.

[2] = Solubility of NMS-E354 free base in water and early formulation vehicles
Description: The solubility of the NMS-E354 free base is about 4 mg/ml in 10% Polysorbate 80 in 5% dextrose solution, about 7 mg/ml in aqueous 50% Polyethylene Glycol 400 in 5% dextrose solution and about 1÷2 mg/ml when formulated as hydrochloride or phosphate in situ salt. NMS-E354 free base was also suitable for aqueous hypromellose suspensions at about 10 mg/ml. Therefore, the obtained free base was initially formulated as cosolvent based aqueous solution, in situ salt or hypromellose suspension in order to allow administration during early pharmacological and toxicological evaluation for early pharmacological studies.

[3] = Solubility of crystalline NMS-E354 salts and free base in 0.9% NaCl solution; conditions: for Aqueous solubility value: stirred 4 hours at RT, excess solid (target 10 mg/ml), filtered, HPLC
Description: The determination of solubility of NMS-E354 salts has been performed by means of the following procedure: known amounts of crystalline NMS-E354 salts or free base stirred for 4 hours at RT in 0.9% NaCl solution, in condition of excess solid considering a target concentration of 10 mg/ml. The obtained preparations were filtered and analysed by means of HPLC.

hygroscopicity [1]	solubility ([2]; 10% Polysorbate 80 in 5% dextrose solution, aqueous with cosolvent or surfactant or cyclodextrin, read-out: solubility)	solubility ([2]; aqueous 50% Polyethylene Glycol 400 in 5% dextrose solution, aqueous with cosolvent or surfactant or cyclodextrin, read-out: solubility)	solubility ([2]; hydrochloride or phosphate in situ salt formulation, formulated as hydrochloride or phosphate in situ salt, read-out: solubility)	solubility ([2]; water, read-out: aqueous solubility)	Aqueous solubility value ([3]; listed as Free base)	Aqueous solubility value [3]	solubility in 0.9% NaCl solution [3]	Compound
low hygroscopicity	~4000 µg/mL (≈ 11.5 mM)	~7000 µg/mL (≈ 20.1 mM)	1000 to 2000 µg/mL	< 10 µg/mL	<10 µg/mL			NC(=O)c1cc(-c2ccnc(N)n2)[nH]c1-c1ccc(Cl)cc1Cl [NMS-E354, 5-(2-amino-pyrimidin-4-yl)-2-(2,4-dichloro-phenyl)-1H-pyrrole-3-carboxylic acid amide]
low hygroscopicity						120 µg/mL		NC(=O)c1cc(-c2ccnc(N)n2)[nH]c1-c1ccc(Cl)cc1Cl [Mesylate salt, 5-(2-amino-pyrimidin-4-yl)-2-(2,4-dichloro-phenyl)-1H-pyrrole-3-carboxylic acid amide]
low hygroscopicity						70 µg/mL	70 µg/mL	NC(=O)c1cc(-c2ccnc(N)n2)[nH]c1-c1ccc(Cl)cc1Cl [Maleate salt, 5-(2-amino-pyrimidin-4-yl)-2-(2,4-dichloro-phenyl)-1H-pyrrole-3-carboxylic acid amide]
low hygroscopicity						20 µg/mL		NC(=O)c1cc(-c2ccnc(N)n2)[nH]c1-c1ccc(Cl)cc1Cl [Hemifumarate salt, 5-(2-amino-pyrimidin-4-yl)-2-(2,4-dichloro-phenyl)-1H-pyrrole-3-carboxylic acid amide]
low hygroscopicity						150 µg/mL	150 µg/mL	NC(=O)c1cc(-c2ccnc(N)n2)[nH]c1-c1ccc(Cl)cc1Cl [Sulfate salt, 5-(2-amino-pyrimidin-4-yl)-2-(2,4-dichloro-phenyl)-1H-pyrrole-3-carboxylic acid amide]
